Laboratory results taken from ChEMBL document CHEMBL1201862, “PubChem BioAssay data set” (2004).
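Growth conditions: 96-well plates. Treatment: test compound, 48 hours, 5 concentrations. Analysis: linear interpolation between bracketing concentrations; unreached endpoints set to highest concentration. At the GI50, growth is halved.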 Calls of active or inactive are those of the source. Cut-off read from the data, not from the text of the source: active = GI50 up to about 1.1 µM and inactive = higher.

Experiments:
Experiment in all cases: NCI anticancer screen, dose series, 48 h
[1] = test system: T47D
[2] = test system: HCT-15
[3] = test system: CAKI-1
[4] = test system: HCT-116
[5] = test system: HT-29
[6] = test system: NCI/ADR-RES
[7] = test system: MDA-MB-231
[8] = test system: OVCAR-8
[9] = test system: DU-145
[10] = test system: MDA-MB-435
[11] = test system: SK-OV-3
[12] = test system: LOX IMVI
[13] = test system: SNB-75
[14] = test system: EKVX
[15] = test system: OVCAR-3
[16] = test system: TK-10
[17] = test system: OVCAR-5
[18] = test system: NCI-H23
[19] = test system: HOP-92
[20] = test system: BT-549

Row | Structure (SMILES) | GI50 [1] | GI50 [2] [µM] | GI50 [3] | GI50 [4] | GI50 [5] | GI50 [6] | GI50 [7] | GI50 [8] | GI50 [9] | GI50 [10] | GI50 [11] | GI50 [12] | GI50 [13] | GI50 [14] | GI50 [15] | GI50 [16] | GI50 [17] | GI50 [18] | GI50 [19] | GI50 [20]
1 | CC(=O)CC1(OC(=O)C2C(C=C(C)C)C2(C)C)C(=O)Nc2ccccc21 (configuration not stated) | > 100 µM (inactive) | > 100 | > 100 µM (inactive) | > 100 µM (inactive) | > 100 µM (inactive) | 68.5 µM (inactive) | > 100 µM (inactive) | > 100 µM (inactive) | > 100 µM (inactive) | > 100 µM (inactive) | > 100 µM (inactive) | > 100 µM (inactive) | 51.3 µM (inactive) | > 100 µM (inactive) | 54.2 µM (inactive) | > 100 µM (inactive) | > 100 µM (inactive) | > 100 µM (inactive) | – | –
2 | CCC(C)C(Nc1c2ccccc2nc2c(C(=O)NCCN(C)C)cccc12)C(=O)O (configuration not stated) | – | 7.45 | – | 4.28 µM (inactive) | 3.21 µM (inactive) | 10.4 µM (inactive) | 17.6 µM (inactive) | 4.45 µM (inactive) | 38.1 µM (inactive) | 18.1 µM (inactive) | 22 µM (inactive) | 4.8 µM (inactive) | 18 µM (inactive) | 16.2 µM (inactive) | 23.6 µM (inactive) | 38.5 µM (inactive) | 21.3 µM (inactive) | 20.2 µM (inactive) | 11.8 µM (inactive) | –
3 | O=c1[nH]c(=O)n(Cc2ccccc2CO)cc1Sc1ccccc1 | 62.4 µM (inactive) | 18.8 | 13.5 µM (inactive) | 25.3 µM (inactive) | 30.5 µM (inactive) | 26.8 µM (inactive) | 11.8 µM (inactive) | 17.7 µM (inactive) | 58.9 µM (inactive) | 20 µM (inactive) | 42.4 µM (inactive) | – | 36.6 µM (inactive) | 21 µM (inactive) | 19.5 µM (inactive) | 30.7 µM (inactive) | > 100 µM (inactive) | 17.4 µM (inactive) | 36.2 µM (inactive) | –
4 | CC(C)(C)COC(=O)C(C)(C)NC(=O)C(CC(=O)OCc1ccccc1)NC(=O)OCc1ccccc1 (configuration not stated) | 20.2 µM (inactive) | 25.6 | 58.2 µM (inactive) | 32.7 µM (inactive) | 24.8 µM (inactive) | 36.8 µM (inactive) | 42.9 µM (inactive) | 40.1 µM (inactive) | 62.2 µM (inactive) | 25.8 µM (inactive) | 35.4 µM (inactive) | 43.5 µM (inactive) | 13.9 µM (inactive) | 54.3 µM (inactive) | 41.4 µM (inactive) | 19.4 µM (inactive) | 26.8 µM (inactive) | 26.7 µM (inactive) | 53.1 µM (inactive) | –
5 | CCC(/C=C/C1OC(=O)C=CC1C)=C\C(C)C/C=C/C(C)=C/C(C)C(=O)C(C)C(O)C(C)C/C(C)=C/C(=O)O (configuration not stated) | – | 1.28 | 0.807 µM (active) | 1.17 µM (inactive) | 3.01e-06 µM (active) | 0.000115 µM (active) | 3.4e-06 µM (active) | 3.14 µM (inactive) | 0.000264 µM (active) | 2.33e-06 µM (active) | 3.11 µM (inactive) | < 1e-06 µM (active) | 1.91 µM (inactive) | 1.92e-05 µM (active) | 0.649 µM (active) | 9.4e-05 µM (active) | 6.65 µM (inactive) | 1.04 µM (active) | 4.98e-06 µM (active) | 2.22e-06 µM (active)
6 | CN(C)/C=N/Cc1ccc2c(c1)OCO2 | > 100 µM (inactive) | > 100 | > 100 µM (inactive) | > 100 µM (inactive) | > 100 µM (inactive) | > 100 µM (inactive) | > 100 µM (inactive) | > 100 µM (inactive) | > 100 µM (inactive) | > 100 µM (inactive) | > 100 µM (inactive) | > 100 µM (inactive) | > 100 µM (inactive) | > 100 µM (inactive) | > 100 µM (inactive) | > 100 µM (inactive) | > 100 µM (inactive) | > 100 µM (inactive) | > 100 µM (inactive) | –
7 | Cc1csc2c(=O)n(COCc3ccccc3)c(=O)[nH]c12 | – | – | > 100 µM (inactive) | > 100 µM (inactive) | > 100 µM (inactive) | > 100 µM (inactive) | > 100 µM (inactive) | > 100 µM (inactive) | > 100 µM (inactive) | > 100 µM (inactive) | – | > 100 µM (inactive) | > 100 µM (inactive) | 66.2 µM (inactive) | > 100 µM (inactive) | > 100 µM (inactive) | > 100 µM (inactive) | > 100 µM (inactive) | 40.8 µM (inactive) | > 100 µM (inactive)
